In patent US12391648B2, “Pyridyloxy thioester derivative and preparation method therefor, herbicidal composition, and application” (Qingdao Kingagroot Chemical Compound Co., Ltd., priority 2018, dated 2025):

Columns and labels:
Experiment in all cases: Post-emergence test experiment (Table 3, 1000 g/ha)
Type in all cases: in vivo
Details in all cases: post-emergence spray, after 3 weeks, fresh weight inhibition
[1] = system: Galium spurium
Summary of the method: (§1)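 Activity graded levels 0-5 by fresh-weight inhibition (level 5 above 85%, level 0 below 5%), assessed 3 weeks after treatment. Plants grown in greenhouse pots were sprayed post-emergence at 2-3 leaves using acetone/tween-80 solutions with methyl oleate synergist (1.5 L/ha).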

[2] = system: Setaria viridis
Summary of the method: as §1

[3] = system: Abutilon theophrasti
Summary of the method: as §1

[4] = system: Digitaria sanguinalis
Summary of the method: as §1

[5] = system: Monochoria vaginalis
Summary of the method: as §1

[6] = system: Leptochloa chinensis
Summary of the method: as §1

`C#CCSC(=O)C(C)Oc1nc(F)c(Cl)c(N)c1Cl` (stereo not drawn) [Compound 90] was tested, and the “Activity level (growth inhibition rate) Galium spurium” value [1] was 5 (Level 5: the growth inhibition rate is greater than 85%), the “Activity level (growth inhibition rate) Setaria viridis” value [2] was 5 (Level 5: the growth inhibition rate is greater than 85%) and the “Activity level (growth inhibition rate) Abutilon theophrasti” value [3] was 5 (Level 5: the growth inhibition rate is greater than 85%). The “Activity level (growth inhibition rate) Digitaria sanguinalis” value [4] was 5 (Level 5: the growth inhibition rate is greater than 85%), the “Activity level (growth inhibition rate) Monochoria Vaginalis” value [5] was 5 (Level 5: the growth inhibition rate is greater than 85%) and the “Activity level (growth inhibition rate) Leptochloa chinensis” value [6] was 5 (Level 5: the growth inhibition rate is greater than 85%).

For `CCCCCCCCCCSC(=O)C(C)Oc1nc(F)c(Cl)c(N)c1Cl` (stereo not drawn) [Compound 141], the “Activity level (growth inhibition rate) Galium spurium” value [1] was 5 (Level 5: the growth inhibition rate is greater than 85%), the “Activity level (growth inhibition rate) Setaria viridis” value [2] was 5 (Level 5: the growth inhibition rate is greater than 85%) and the “Activity level (growth inhibition rate) Abutilon theophrasti” value [3] was 5 (Level 5: the growth inhibition rate is greater than 85%). The “Activity level (growth inhibition rate) Digitaria sanguinalis” value [4] was 5 (Level 5: the growth inhibition rate is greater than 85%), the “Activity level (growth inhibition rate) Monochoria Vaginalis” value [5] was 5 (Level 5: the growth inhibition rate is greater than 85%) and the “Activity level (growth inhibition rate) Leptochloa chinensis” value [6] was 5 (Level 5: the growth inhibition rate is greater than 85%).

In the case of `CC(Oc1nc(F)c(Cl)c(N)c1Cl)C(=O)Sc1ccn(C)n1` (stereo not drawn) [Compound 118], the “Activity level (growth inhibition rate) Galium spurium” value [1] is reported as 5 (Level 5: the growth inhibition rate is greater than 85%), the “Activity level (growth inhibition rate) Setaria viridis” value [2] is reported as 5 (Level 5: the growth inhibition rate is greater than 85%) and the “Activity level (growth inhibition rate) Abutilon theophrasti” value [3] is reported as 5 (Level 5: the growth inhibition rate is greater than 85%). The “Activity level (growth inhibition rate) Digitaria sanguinalis” value [4] was 5 (Level 5: the growth inhibition rate is greater than 85%), the “Activity level (growth inhibition rate) Monochoria Vaginalis” value [5] was 5 (Level 5: the growth inhibition rate is greater than 85%) and the “Activity level (growth inhibition rate) Leptochloa chinensis” value [6] was 5 (Level 5: the growth inhibition rate is greater than 85%).

In the case of `CCCc1c(OC(C)C(=O)SCC(F)(F)F)nc(Br)c(Cl)c1N` (stereo not drawn) [Compound 18], the “Activity level (growth inhibition rate) Galium spurium” value [1] is reported as 5 (Level 5: the growth inhibition rate is greater than 85%), the “Activity level (growth inhibition rate) Setaria viridis” value [2] is reported as 5 (Level 5: the growth inhibition rate is greater than 85%) and the “Activity level (growth inhibition rate) Abutilon theophrasti” value [3] is reported as 5 (Level 5: the growth inhibition rate is greater than 85%). For the same compound, the “Activity level (growth inhibition rate) Digitaria sanguinalis” value [4] was 5 (Level 5: the growth inhibition rate is greater than 85%), the “Activity level (growth inhibition rate) Monochoria Vaginalis” value [5] was 5 (Level 5: the growth inhibition rate is greater than 85%) and the “Activity level (growth inhibition rate) Leptochloa chinensis” value [6] was 5 (Level 5: the growth inhibition rate is greater than 85%).

With `CC(Oc1nc(F)c(Cl)c(N)c1Cl)C(=O)SCC(C)(C)C` (stereo not drawn) [Compound 148] the “Activity level (growth inhibition rate) Galium spurium” value [1] was 5 (Level 5: the growth inhibition rate is greater than 85%), the “Activity level (growth inhibition rate) Setaria viridis” value [2] was 5 (Level 5: the growth inhibition rate is greater than 85%) and the “Activity level (growth inhibition rate) Abutilon theophrasti” value [3] was 5 (Level 5: the growth inhibition rate is greater than 85%). For the same compound, the “Activity level (growth inhibition rate) Digitaria sanguinalis” value [4] was 5 (Level 5: the growth inhibition rate is greater than 85%), the “Activity level (growth inhibition rate) Monochoria Vaginalis” value [5] was 5 (Level 5: the growth inhibition rate is greater than 85%) and the “Activity level (growth inhibition rate) Leptochloa chinensis” value [6] was 5 (Level 5: the growth inhibition rate is greater than 85%).

In the case of `CC(C)SC(=O)C(C)Oc1nc(F)c(Cl)c(N)c1Cl` (stereo not drawn) [Compound 68], the “Activity level (growth inhibition rate) Galium spurium” value [1] is reported as 5 (Level 5: the growth inhibition rate is greater than 85%), the “Activity level (growth inhibition rate) Setaria viridis” value [2] is reported as 5 (Level 5: the growth inhibition rate is greater than 85%) and the “Activity level (growth inhibition rate) Abutilon theophrasti” value [3] is reported as 5 (Level 5: the growth inhibition rate is greater than 85%). For the same compound, the “Activity level (growth inhibition rate) Digitaria sanguinalis” value [4] was 5 (Level 5: the growth inhibition rate is greater than 85%), the “Activity level (growth inhibition rate) Monochoria Vaginalis” value [5] was 5 (Level 5: the growth inhibition rate is greater than 85%) and the “Activity level (growth inhibition rate) Leptochloa chinensis” value [6] was 5 (Level 5: the growth inhibition rate is greater than 85%).

For `CSC(=O)C(C)Oc1ncc(I)c(N)c1I` (stereo not drawn) [Compound 13], the “Activity level (growth inhibition rate) Galium spurium” value [1] was 5 (Level 5: the growth inhibition rate is greater than 85%), the “Activity level (growth inhibition rate) Setaria viridis” value [2] was 5 (Level 5: the growth inhibition rate is greater than 85%) and the “Activity level (growth inhibition rate) Abutilon theophrasti” value [3] was 5 (Level 5: the growth inhibition rate is greater than 85%). The “Activity level (growth inhibition rate) Digitaria sanguinalis” value [4] was 5 (Level 5: the growth inhibition rate is greater than 85%), the “Activity level (growth inhibition rate) Monochoria Vaginalis” value [5] was 5 (Level 5: the growth inhibition rate is greater than 85%) and the “Activity level (growth inhibition rate) Leptochloa chinensis” value [6] was 5 (Level 5: the growth inhibition rate is greater than 85%).

`CC(C)=NSC(=O)C(C)Oc1nc(F)c(Cl)c(N)c1Cl` (stereo not drawn) [Compound 102] was tested, and the “Activity level (growth inhibition rate) Galium spurium” value [1] was 5 (Level 5: the growth inhibition rate is greater than 85%), the “Activity level (growth inhibition rate) Setaria viridis” value [2] was 5 (Level 5: the growth inhibition rate is greater than 85%) and the “Activity level (growth inhibition rate) Abutilon theophrasti” value [3] was 5 (Level 5: the growth inhibition rate is greater than 85%). For the same compound, the “Activity level (growth inhibition rate) Digitaria sanguinalis” value [4] was 5 (Level 5: the growth inhibition rate is greater than 85%), the “Activity level (growth inhibition rate) Monochoria Vaginalis” value [5] was 5 (Level 5: the growth inhibition rate is greater than 85%) and the “Activity level (growth inhibition rate) Leptochloa chinensis” value [6] was 5 (Level 5: the growth inhibition rate is greater than 85%).

In the case of `CCOCSC(=O)C(C)Oc1nc(F)c(Cl)c(N)c1Cl` (stereo not drawn) [Compound 86], the “Activity level (growth inhibition rate) Galium spurium” value [1] is reported as 5 (Level 5: the growth inhibition rate is greater than 85%), the “Activity level (growth inhibition rate) Setaria viridis” value [2] is reported as 5 (Level 5: the growth inhibition rate is greater than 85%) and the “Activity level (growth inhibition rate) Abutilon theophrasti” value [3] is reported as 5 (Level 5: the growth inhibition rate is greater than 85%). For the same compound, the “Activity level (growth inhibition rate) Digitaria sanguinalis” value [4] was 5 (Level 5: the growth inhibition rate is greater than 85%), the “Activity level (growth inhibition rate) Monochoria Vaginalis” value [5] was 5 (Level 5: the growth inhibition rate is greater than 85%) and the “Activity level (growth inhibition rate) Leptochloa chinensis” value [6] was 5 (Level 5: the growth inhibition rate is greater than 85%).

For `COC(=O)C(C)SC(=O)C(C)Oc1nc(F)c(Cl)c(N)c1Cl` (stereo not drawn) [Compound 95], the “Activity level (growth inhibition rate) Galium spurium” value [1] was 5 (Level 5: the growth inhibition rate is greater than 85%), the “Activity level (growth inhibition rate) Setaria viridis” value [2] was 5 (Level 5: the growth inhibition rate is greater than 85%) and the “Activity level (growth inhibition rate) Abutilon theophrasti” value [3] was 5 (Level 5: the growth inhibition rate is greater than 85%). The “Activity level (growth inhibition rate) Digitaria sanguinalis” value [4] was 5 (Level 5: the growth inhibition rate is greater than 85%), the “Activity level (growth inhibition rate) Monochoria Vaginalis” value [5] was 5 (Level 5: the growth inhibition rate is greater than 85%) and the “Activity level (growth inhibition rate) Leptochloa chinensis” value [6] was 5 (Level 5: the growth inhibition rate is greater than 85%).

For `Cc1cc(SC(=O)C(C)Oc2nc(F)c(Cl)c(N)c2Cl)n(C)n1` (stereo not drawn) [Compound 117], the “Activity level (growth inhibition rate) Galium spurium” value [1] was 5 (Level 5: the growth inhibition rate is greater than 85%), the “Activity level (growth inhibition rate) Setaria viridis” value [2] was 5 (Level 5: the growth inhibition rate is greater than 85%) and the “Activity level (growth inhibition rate) Abutilon theophrasti” value [3] was 5 (Level 5: the growth inhibition rate is greater than 85%). For the same compound, the “Activity level (growth inhibition rate) Digitaria sanguinalis” value [4] was 5 (Level 5: the growth inhibition rate is greater than 85%), the “Activity level (growth inhibition rate) Monochoria Vaginalis” value [5] was 5 (Level 5: the growth inhibition rate is greater than 85%) and the “Activity level (growth inhibition rate) Leptochloa chinensis” value [6] was 5 (Level 5: the growth inhibition rate is greater than 85%).

In the case of `CC(Oc1nc(F)c(Cl)c(N)c1Cl)C(=O)SS(C)(=O)=O` (stereo not drawn) [Compound 105], the “Activity level (growth inhibition rate) Galium spurium” value [1] is reported as 5 (Level 5: the growth inhibition rate is greater than 85%), the “Activity level (growth inhibition rate) Setaria viridis” value [2] is reported as 5 (Level 5: the growth inhibition rate is greater than 85%) and the “Activity level (growth inhibition rate) Abutilon theophrasti” value [3] is reported as 5 (Level 5: the growth inhibition rate is greater than 85%). For the same compound, the “Activity level (growth inhibition rate) Digitaria sanguinalis” value [4] was 5 (Level 5: the growth inhibition rate is greater than 85%), the “Activity level (growth inhibition rate) Monochoria Vaginalis” value [5] was 5 (Level 5: the growth inhibition rate is greater than 85%) and the “Activity level (growth inhibition rate) Leptochloa chinensis” value [6] was 5 (Level 5: the growth inhibition rate is greater than 85%).

For `CCOC(=O)SC(=O)C(C)Oc1nc(F)c(Cl)c(N)c1Cl` (stereo not drawn) [Compound 101], the “Activity level (growth inhibition rate) Galium spurium” value [1] was 5 (Level 5: the growth inhibition rate is greater than 85%), the “Activity level (growth inhibition rate) Setaria viridis” value [2] was 5 (Level 5: the growth inhibition rate is greater than 85%) and the “Activity level (growth inhibition rate) Abutilon theophrasti” value [3] was 5 (Level 5: the growth inhibition rate is greater than 85%). For the same compound, the “Activity level (growth inhibition rate) Digitaria sanguinalis” value [4] was 5 (Level 5: the growth inhibition rate is greater than 85%), the “Activity level (growth inhibition rate) Monochoria Vaginalis” value [5] was 5 (Level 5: the growth inhibition rate is greater than 85%) and the “Activity level (growth inhibition rate) Leptochloa chinensis” value [6] was 5 (Level 5: the growth inhibition rate is greater than 85%).

`COc1ccc(SC(=O)C(C)Oc2nc(F)c(Cl)c(N)c2Cl)cc1` (stereo not drawn) [Compound 111] was tested, and the “Activity level (growth inhibition rate) Galium spurium” value [1] was 5 (Level 5: the growth inhibition rate is greater than 85%), the “Activity level (growth inhibition rate) Setaria viridis” value [2] was 5 (Level 5: the growth inhibition rate is greater than 85%) and the “Activity level (growth inhibition rate) Abutilon theophrasti” value [3] was 5 (Level 5: the growth inhibition rate is greater than 85%). For the same compound, the “Activity level (growth inhibition rate) Digitaria sanguinalis” value [4] was 5 (Level 5: the growth inhibition rate is greater than 85%), the “Activity level (growth inhibition rate) Monochoria Vaginalis” value [5] was 5 (Level 5: the growth inhibition rate is greater than 85%) and the “Activity level (growth inhibition rate) Leptochloa chinensis” value [6] was 5 (Level 5: the growth inhibition rate is greater than 85%).
